Measured values published in ChEMBL document CHEMBL1255194, “A stereo-controlled synthesis of 2,4-dimethyl-4-hydroxy-16-phenylhexadecanoic acid 1,4-lactone and its PPAR activities” (Bioorg Med Chem Lett, 2010).

Key:
[1] = molecular target: T1, Peroxisome proliferator-activated receptor gamma (Mus musculus, UniProt P37238); assay: Transactivation of mouse PPARgamma expressed in CV1 cells at 100 uM; assay type: cell-based; details: cv-1
T1 sequence (P37238 whole entry): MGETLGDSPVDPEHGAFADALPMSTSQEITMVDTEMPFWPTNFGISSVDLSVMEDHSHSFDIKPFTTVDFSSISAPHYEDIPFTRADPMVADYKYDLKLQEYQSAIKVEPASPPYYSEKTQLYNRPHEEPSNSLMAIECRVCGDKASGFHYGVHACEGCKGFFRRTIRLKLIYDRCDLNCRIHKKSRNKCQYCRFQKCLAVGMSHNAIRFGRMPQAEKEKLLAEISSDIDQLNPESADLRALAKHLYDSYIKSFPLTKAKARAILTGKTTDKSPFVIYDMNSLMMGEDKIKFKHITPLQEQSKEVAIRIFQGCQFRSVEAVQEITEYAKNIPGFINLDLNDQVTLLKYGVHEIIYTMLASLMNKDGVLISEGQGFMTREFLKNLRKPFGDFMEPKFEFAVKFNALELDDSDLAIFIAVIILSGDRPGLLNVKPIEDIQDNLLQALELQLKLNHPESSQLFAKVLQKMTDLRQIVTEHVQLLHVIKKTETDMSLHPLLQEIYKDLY

[2] = molecular target: T2, Peroxisome proliferator-activated receptor delta (Mus musculus, UniProt P35396); assay: Transactivation of mouse PPARdelta expressed in CV1 cells; assay type: cell-based, CV-1
T2 sequence (P35396 whole entry): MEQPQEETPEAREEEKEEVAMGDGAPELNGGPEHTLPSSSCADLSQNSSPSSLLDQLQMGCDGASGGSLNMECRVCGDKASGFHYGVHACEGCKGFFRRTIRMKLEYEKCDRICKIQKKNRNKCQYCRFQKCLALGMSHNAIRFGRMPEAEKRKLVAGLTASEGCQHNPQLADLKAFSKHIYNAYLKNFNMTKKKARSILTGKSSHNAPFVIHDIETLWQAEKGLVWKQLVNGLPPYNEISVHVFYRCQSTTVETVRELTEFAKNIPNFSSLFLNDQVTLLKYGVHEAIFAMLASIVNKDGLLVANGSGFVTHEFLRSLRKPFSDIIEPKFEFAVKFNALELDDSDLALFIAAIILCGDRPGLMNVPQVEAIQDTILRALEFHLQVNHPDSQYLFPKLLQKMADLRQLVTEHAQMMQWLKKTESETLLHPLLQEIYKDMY

[3] = molecular target: T3, Peroxisome proliferator-activated receptor alpha (Mus musculus, UniProt P23204); assay: Transactivation of mouse PPARalpha expressed in CV1 cells; assay type: cell-based, CV-1
T3 sequence (P23204 whole entry): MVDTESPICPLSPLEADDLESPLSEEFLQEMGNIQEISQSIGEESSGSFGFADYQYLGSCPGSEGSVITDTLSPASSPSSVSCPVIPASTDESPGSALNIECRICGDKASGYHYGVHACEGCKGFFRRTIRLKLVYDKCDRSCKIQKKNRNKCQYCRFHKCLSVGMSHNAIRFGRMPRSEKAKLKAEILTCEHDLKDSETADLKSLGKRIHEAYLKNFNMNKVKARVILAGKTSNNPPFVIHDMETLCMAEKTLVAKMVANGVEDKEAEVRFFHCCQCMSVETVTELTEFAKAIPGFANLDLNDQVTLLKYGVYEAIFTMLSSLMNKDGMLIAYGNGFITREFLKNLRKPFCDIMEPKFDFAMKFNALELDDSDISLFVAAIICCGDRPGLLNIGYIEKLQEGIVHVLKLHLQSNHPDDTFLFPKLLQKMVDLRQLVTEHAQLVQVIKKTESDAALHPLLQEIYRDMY

EC50 [1] | EC50 [2] [µM] | EC50 [3] [µM] | EC50 ([2]; cv-1) [µM] | Compound
Not Active | 22 | 24 |  | C[C@H]1C[C@@](C)(CCCCCCCCCCCCc2ccccc2)OC1=O (stereo in doubt)
Not Active | 16 | 13 |  | C[C@H]1C[C@](C)(CCCCCCCCCCCCc2ccccc2)OC1=O (stereo in doubt)
 | 24 | 25 |  | C[C@H]1C[C@](C)(CCCCCCCCCCCCc2ccccc2)OC1=O (stereo in doubt; (+)-1c)
 |  | 20 | 22 | C[C@H]1C[C@@](C)(CCCCCCCCCCCCc2ccccc2)OC1=O (stereo in doubt; 1a)
Not Active | 34 | 39 |  | C[C@@H]1C[C@](C)(CCCCCCCCCCCCc2ccccc2)OC1=O
Not Active | 9 | 12 |  | C[C@@H]1C[C@@](C)(CCCCCCCCCCCCc2ccccc2)OC1=O
